Measurements: paper PMC8286840, “Identifying SARS-CoV-2 antiviral compounds by screening for small molecule inhibitors of Nsp3 papain-like protease” (Biochemical Journal, 2021)
Counter-ions that a name gives are not always drawn. Like-named read-outs stand apart in the source and are kept apart here. Where a SMILES comes first, the peptide text is derived from it. [ ]: non-standard residue; d: D form. The star is where a group is joined. Dolaproine = CO[C@@H]([C@@H]1CCCN1)[C@@H](C)C(=O)O; Dil = CC[C@H](C)[C@H](NC)[C@@H](CC(=O)O)OC; NMe2Val = CC(C)[C@@H](C(=O)*)N(C)C

Tests used:
[1] = molecular target: T1, SARS-CoV-2 PLpro (nsp3 1564–1878) (Severe acute respiratory syndrome coronavirus 2, UniProt P0DTD1); assay: biochemical; design: FRET-quenched peptide (Pro3) cleavage by PLpro, 10 min pre-incubation, slope over 20 min, normalised to no-compound control; conditions: high concentration screen, read-out: % of control remaining
[2] = molecular target: T1, SARS-CoV-2 PLpro (nsp3 1564–1878); assay: biochemical; design: FRET-quenched peptide (Pro3) cleavage by PLpro, 10 min pre-incubation, slope over 20 min, normalised to no-compound control; conditions: low concentration screen, read-out: % of control remaining

Compound: CC(C)=CCC/C(C)=C/COc1ccc2ccc(=O)oc2c1 [Auraptene]
- remaining activity at 3.75 µM ([1]; Well no.=3511): 104%
- remaining activity at 1.25 µM ([2]; Well no.=3511): 101%

Compound: O=C(O)C1=CC(=C(c2ccc(O)c(C(=O)O)c2)c2ccc(O)c(C(=O)O)c2)C=CC1=O [Aurintricarboxylic acid]
- remaining activity at 3.75 µM ([1]; Well no.=249): 109%
- remaining activity at 1.25 µM ([2]; Well no.=249): 97.6%

Compound: CC[C@H](C)[C@@H]([C@@H](CC(=O)N1CCC[C@H]1[C@H](OC)[C@@H](C)C(=O)N[C@@H](Cc1ccccc1)C(=O)O)OC)N(C)C(=O)[C@@H](NC(=O)[C@H](C(C)C)N(C)C)C(C)C [Auristatin F] (NMe2Val-V[Dil][Dolaproine]F-OH)
- remaining activity at 3.75 µM ([1]; Well no.=8602): 100%
- remaining activity at 1.25 µM ([2]; Well no.=8602): 106%

Compound: CCN1CCN(C(=O)Cc2ccc(Nc3ncc(F)c(Nc4ccc(C(=O)Nc5ccccc5Cl)cc4)n3)cc2)CC1 [Aurora A Inhibitor I]
- remaining activity at 3.75 µM ([1]; Well no.=5241): 102%
- remaining activity at 1.25 µM ([2]; Well no.=5241): 95.1%

Compound: O=C(Nc1cccc(Nc2nccc(Nc3cccc(C(F)(F)F)c3)n2)c1)C1CC1 [Aurora Kinase Inhibitor III]
- remaining activity at 3.75 µM ([1]; Well no.=2326): 102%
- remaining activity at 3.75 µM ([1]; Well no.=2659): 94%
- remaining activity at 1.25 µM ([2]; Well no.=2326): 105%
- remaining activity at 1.25 µM ([2]; Well no.=2659): 95.7%

Compound: COc1cc2ncnc(Nc3ccc(NC(=O)c4ccccc4)cc3)c2cc1OC [Aurora Kinase Inhibitor II]
- remaining activity at 3.75 µM ([1]; Well no.=2321): 99.9%
- remaining activity at 1.25 µM ([2]; Well no.=2321): 99.4%

Compound: Nc1nc(Nc2ccc(S(N)(=O)=O)cc2)nn1C(=O)c1c(F)cccc1F [Aurora Kinase/Cdk Inhibitor]
- remaining activity at 3.75 µM ([1]; Well no.=2356): 100%
- remaining activity at 1.25 µM ([2]; Well no.=2356): 98.5%

Compound: CC1=CC(=O)C2=C(C)C[C@H](O)[C@@H]3[C@H](OC(=O)[C@H]3C)[C@@H]12 [Austricin]
- remaining activity at 3.75 µM ([1]; Well no.=3105): 105%
- remaining activity at 1.25 µM ([2]; Well no.=3105): 102%

Compound: Cc1nc2cccc(N)c2c(=O)n1C1CCC(=O)NC1=O (centres unmarked) [Avadomide]
- remaining activity at 3.75 µM ([1]; Well no.=6870): 95.9%
- remaining activity at 1.25 µM ([2]; Well no.=6870): 99.6%

Compound: COc1ccc(CNc2nc(N3CCC[C@H]3CO)ncc2C(=O)NCc2ncccn2)cc1Cl [Avanafil]
- remaining activity at 3.75 µM ([1]; Well no.=5078): 100%
- remaining activity at 1.25 µM ([2]; Well no.=5078): 101%

Compound: CC(C)c1cc(C(C)C)c(CC(=O)NS(=O)(=O)Oc2c(C(C)C)cccc2C(C)C)c(C(C)C)c1 [Avasimibe]
- remaining activity at 3.75 µM ([1]; Well no.=5705): 96.6%
- remaining activity at 3.75 µM ([1]; Well no.=8336): 88%
- remaining activity at 1.25 µM ([2]; Well no.=5705): 99.6%
- remaining activity at 1.25 µM ([2]; Well no.=8336): 89.6%

Compound: COc1ccccc1Oc1c(NS(=O)(=O)c2ccc(C)cn2)nc(-c2ccncc2)nc1OC [Avosentan]
- remaining activity at 3.75 µM ([1]; Well no.=7281): 100%
- remaining activity at 1.25 µM ([2]; Well no.=7281): 102%

Compound: CNC(=O)c1ccccc1Sc1ccc2c(/C=C/c3ccccn3)n[nH]c2c1 [Axitinib]
- remaining activity at 3.75 µM ([1]; Well no.=2803): 99.1%
- remaining activity at 1.25 µM ([2]; Well no.=2803): 101%

Compound: OC(c1ccccc1)(c1ccccc1)C1CCNCC1 [Azacyclonol]
- remaining activity at 3.75 µM ([1]; Well no.=5068): 103%
- remaining activity at 1.25 µM ([2]; Well no.=5068): 97.2%

Compound: O=C(CCCN1CCN(c2ccccn2)CC1)c1ccc(F)cc1 [Azaperone]
- remaining activity at 3.75 µM ([1]; Well no.=2163): 103%
- remaining activity at 3.75 µM ([1]; Well no.=6471): 101%
- remaining activity at 1.25 µM ([2]; Well no.=2163): 100%
- remaining activity at 1.25 µM ([2]; Well no.=6471): 102%

Compound: CN1C(=O)COc2c(C(=O)NC3CN4CCC3CC4)cc(Cl)cc21 (centres unmarked) [Azasetron (hydrochloride)]
- remaining activity at 3.75 µM ([1]; Well no.=8243): 96.1%
- remaining activity at 1.25 µM ([2]; Well no.=8243): 96.2%

Compound: CN1CCC(=C2c3ccccc3CCc3cccnc32)CC1 [Azatadine (dimaleate)]
- remaining activity at 3.75 µM ([1]; Well no.=7617): 105%
- remaining activity at 1.25 µM ([2]; Well no.=7617): 103%

Compound: CN1CCC(=C2c3ccccc3CCc3cccnc32)CC1 [Azatadine dimaleate]
- remaining activity at 3.75 µM ([1]; Well no.=5036): 102%
- remaining activity at 1.25 µM ([2]; Well no.=5036): 99%

Compound: Cn1cnc([N+](=O)[O-])c1Sc1ncnc2[nH]cnc12 [Azathioprine]
- remaining activity at 3.75 µM ([1]; Well no.=111): 100%
- remaining activity at 3.75 µM ([1]; Well no.=1834): 97.6%
- remaining activity at 1.25 µM ([2]; Well no.=111): 99.7%
- remaining activity at 1.25 µM ([2]; Well no.=1834): 102%

Compound: O=C(O)CCCCCCCC(=O)O [Azelaic acid]
- remaining activity at 3.75 µM ([1]; Well no.=243): 98.7%
- remaining activity at 3.75 µM ([1]; Well no.=6157): 105%
- remaining activity at 1.25 µM ([2]; Well no.=243): 100%
- remaining activity at 1.25 µM ([2]; Well no.=6157): 108%

Compound: CN1CCCC(n2nc(Cc3ccc(Cl)cc3)c3ccccc3c2=O)CC1 (centres unmarked) [Azelastine (hydrochloride)]
- remaining activity at 3.75 µM ([1]; Well no.=6173): 105%
- remaining activity at 1.25 µM ([2]; Well no.=6173): 103%

Compound: CC1=C(C(=O)OC(C)C)C(c2cccc([N+](=O)[O-])c2)C(C(=O)OC2CN(C(c3ccccc3)c3ccccc3)C2)=C(N)N1 (centres unmarked) [Azelnidipine]
- remaining activity at 3.75 µM ([1]; Well no.=5275): 93.3%
- remaining activity at 1.25 µM ([2]; Well no.=5275): 97.2%

Compound: CCOc1nc2cccc(C(=O)O)c2n1Cc1ccc(-c2ccccc2-c2noc(=O)[nH]2)cc1 [Azilsartan]
- remaining activity at 3.75 µM ([1]; Well no.=5416): 95.7%
- remaining activity at 3.75 µM ([1]; Well no.=6813): 89.9%
- remaining activity at 1.25 µM ([2]; Well no.=5416): 97.2%
- remaining activity at 1.25 µM ([2]; Well no.=6813): 90.2%

Compound: CC[C@H]1OC(=O)[C@H](C)[C@@H](O[C@H]2C[C@@](C)(OC)[C@@H](O)[C@H](C)O2)[C@H](C)[C@@H](O[C@@H]2O[C@H](C)C[C@H](N(C)C)[C@H]2O)[C@](C)(O)C[C@@H](C)CN(C)[C@H](C)[C@@H](O)[C@]1(C)O [Azithromycin]
- remaining activity at 3.75 µM ([1]; Well no.=2167): 102%
- remaining activity at 1.25 µM ([2]; Well no.=2167): 97.4%

Compound: CC1(C)S[C@@H]2[C@H](NC(=O)[C@H](NC(=O)N3CCNC3=O)c3ccccc3)C(=O)N2[C@H]1C(=O)O [Azlocillin (sodium salt)]
- remaining activity at 3.75 µM ([1]; Well no.=7454): 101%
- remaining activity at 1.25 µM ([2]; Well no.=7454): 94.9%

Compound: CC1(C)S[C@@H]2[C@H](NC(=O)[C@H](NC(=O)N3CCNC3=O)c3ccccc3)C(=O)N2[C@H]1C(=O)O [Azlocillin sodium salt]
- remaining activity at 3.75 µM ([1]; Well no.=5356): 93.9%
- remaining activity at 1.25 µM ([2]; Well no.=5356): 98.5%

Compound: c1ccc(/N=N/c2ccccc2)cc1 [Azobenzene]
- remaining activity at 3.75 µM ([1]; Well no.=8080): 101%
- remaining activity at 1.25 µM ([2]; Well no.=8080): 102%

Compound: O=[N+]([O-])c1ncc[nH]1 [Azomycin]
- remaining activity at 3.75 µM ([1]; Well no.=3571): 103%
- remaining activity at 1.25 µM ([2]; Well no.=3571): 109%

Compound: CCCC(=O)NCCc1csc(-c2ccc(Cl)cc2)n1 [Azoramide]
- remaining activity at 3.75 µM ([1]; Well no.=8488): 99.7%
- remaining activity at 1.25 µM ([2]; Well no.=8488): 98.4%

Compound: C[C@H]1[C@H](NC(=O)/C(=N\OC(C)(C)C(=O)O)c2csc(N)n2)C(=O)N1S(=O)(=O)O [Aztreonam]
- remaining activity at 3.75 µM ([1]; Well no.=2169): 102%
- remaining activity at 1.25 µM ([2]; Well no.=2169): 103%

Compound: C=CCN1CCc2nc(N)sc2CC1 [B-HT 920]
- remaining activity at 3.75 µM ([1]; Well no.=8195): 100%
- remaining activity at 1.25 µM ([2]; Well no.=8195): 99.9%
